{
  "source": "the supplement of paper PMC10307832",
  "assay_in_all_cases": "relative viability (nuclei count vs DMSO), 5 days (fraction); higher = more cells survive",
  "key": {"HCC-366": {"tested_on": "HCC-366", "in_short": "(§1)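 After 5 days of treatment, lung cancer cells in 1536-well plates were fixed and stained in a single step (final 0.05% Triton X-100, 1% formaldehyde, 1 ug/ml Hoechst) and their nuclei counted on 4× images. Treatment had been applied by pin tool the day after seeding as one drug alone or as a fixed anchor-drug dose with five library-drug doses (not always all listed) in √10 steps. Relative viability is the nuclei count of treated wells divided by that of vehicle wells, and values are medians of duplicate plates.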"}, "NCI-H650": {"tested_on": "NCI-H650", "in_short": "as §1"}, "COR-L23": {"tested_on": "COR-L23", "in_short": "as §1"}, "201T": {"tested_on": "201T", "in_short": "as §1"}, "NCI-H2085": {"tested_on": "NCI-H2085", "in_short": "as §1"}, "LU99A": {"tested_on": "LU99A", "in_short": "as §1"}, "NCI-H23": {"tested_on": "NCI-H23", "in_short": "as §1"}, "H3255": {"tested_on": "H3255", "in_short": "as §1"}, "SK-LU-1": {"tested_on": "SK-LU-1", "in_short": "as §1"}, "NCI-H1650": {"tested_on": "NCI-H1650", "in_short": "as §1"}, "NCI-H1651": {"tested_on": "NCI-H1651", "in_short": "as §1"}},
  "data": [
    {"smiles": "Cc1cn(-c2cc(NC(=O)c3ccc(C)c(Nc4nccc(-c5cccnc5)n4)c3)cc(C(F)(F)F)c2)cn1", "note": "[Nilotinib] + Nc1ncn([C@H]2C[C@H](O)[C@@H](CO)O2)c(=O)n1 [Decitabine] (partner 2 µM)", "values": [
      {"measurement": "relative viability", "setting": "HCC-366; first compound 0.001 µM", "result": 0.325},
      {"measurement": "relative viability", "setting": "HCC-366; first compound 0.003162 µM", "result": 0.348},
      {"measurement": "relative viability", "setting": "HCC-366; first compound 0.01 µM", "result": 0.41},
      {"measurement": "relative viability", "setting": "HCC-366; first compound 0.03162 µM", "result": 0.445},
      {"measurement": "relative viability", "setting": "HCC-366; first compound 0.1 µM", "result": 0.37},
      {"measurement": "relative viability", "setting": "NCI-H650; first compound 0.001 µM", "result": 0.295},
      {"measurement": "relative viability", "setting": "NCI-H650; first compound 0.003162 µM", "result": 0.379},
      {"measurement": "relative viability", "setting": "NCI-H650; first compound 0.01 µM", "result": 0.387},
      {"measurement": "relative viability", "setting": "NCI-H650; first compound 0.03162 µM", "result": 0.315},
      {"measurement": "relative viability", "setting": "NCI-H650; first compound 0.1 µM", "result": 0.306},
      {"measurement": "relative viability", "setting": "COR-L23; first compound 0.001 µM", "result": 0.445},
      {"measurement": "relative viability", "setting": "COR-L23; first compound 0.003162 µM", "result": 0.493},
      {"measurement": "relative viability", "setting": "COR-L23; first compound 0.01 µM", "result": 0.464},
      {"measurement": "relative viability", "setting": "COR-L23; first compound 0.03162 µM", "result": 0.482},
      {"measurement": "relative viability", "setting": "COR-L23; first compound 0.1 µM", "result": 0.601},
      {"measurement": "relative viability", "setting": "201T; first compound 0.001 µM", "result": 0.851},
      {"measurement": "relative viability", "setting": "201T; first compound 0.003162 µM", "result": 0.973},
      {"measurement": "relative viability", "setting": "201T; first compound 0.01 µM", "result": 0.944},
      {"measurement": "relative viability", "setting": "201T; first compound 0.03162 µM", "result": 1.01},
      {"measurement": "relative viability", "setting": "201T; first compound 0.1 µM", "result": 0.814},
      {"measurement": "relative viability", "setting": "NCI-H2085; first compound 0.001 µM", "result": 0.591},
      {"measurement": "relative viability", "setting": "NCI-H2085; first compound 0.003162 µM", "result": 0.619},
      {"measurement": "relative viability", "setting": "NCI-H2085; first compound 0.01 µM", "result": 0.675},
      {"measurement": "relative viability", "setting": "NCI-H2085; first compound 0.03162 µM", "result": 0.794},
      {"measurement": "relative viability", "setting": "NCI-H2085; first compound 0.1 µM", "result": 0.76},
      {"measurement": "relative viability", "setting": "LU99A; first compound 0.001 µM", "result": 0.909},
      {"measurement": "relative viability", "setting": "LU99A; first compound 0.003162 µM", "result": 1.11},
      {"measurement": "relative viability", "setting": "LU99A; first compound 0.01 µM", "result": 0.905},
      {"measurement": "relative viability", "setting": "LU99A; first compound 0.03162 µM", "result": 0.999},
      {"measurement": "relative viability", "setting": "LU99A; first compound 0.1 µM", "result": 0.436},
      {"measurement": "relative viability", "setting": "NCI-H23; first compound 0.001 µM", "result": 0.355},
      {"measurement": "relative viability", "setting": "NCI-H23; first compound 0.003162 µM", "result": 0.352},
      {"measurement": "relative viability", "setting": "NCI-H23; first compound 0.01 µM", "result": 0.344},
      {"measurement": "relative viability", "setting": "NCI-H23; first compound 0.03162 µM", "result": 0.351},
      {"measurement": "relative viability", "setting": "NCI-H23; first compound 0.1 µM", "result": 0.273},
      {"measurement": "relative viability", "setting": "H3255; first compound 0.001 µM", "result": 0.549},
      {"measurement": "relative viability", "setting": "H3255; first compound 0.003162 µM", "result": 0.659},
      {"measurement": "relative viability", "setting": "H3255; first compound 0.03162 µM", "result": 0.667},
      {"measurement": "relative viability", "setting": "H3255; first compound 0.1 µM", "result": 0.692},
      {"measurement": "relative viability", "setting": "SK-LU-1; first compound 0.001 µM", "result": 0.532},
      {"measurement": "relative viability", "setting": "SK-LU-1; first compound 0.003162 µM", "result": 0.627},
      {"measurement": "relative viability", "setting": "SK-LU-1; first compound 0.01 µM", "result": 0.699},
      {"measurement": "relative viability", "setting": "SK-LU-1; first compound 0.03162 µM", "result": 0.424},
      {"measurement": "relative viability", "setting": "SK-LU-1; first compound 0.1 µM", "result": 0.532},
      {"measurement": "relative viability", "setting": "NCI-H1650; first compound 0.001 µM", "result": 0.462},
      {"measurement": "relative viability", "setting": "NCI-H1650; first compound 0.003162 µM", "result": 0.621},
      {"measurement": "relative viability", "setting": "NCI-H1650; first compound 0.01 µM", "result": 0.579},
      {"measurement": "relative viability", "setting": "NCI-H1650; first compound 0.03162 µM", "result": 0.588},
      {"measurement": "relative viability", "setting": "NCI-H1650; first compound 0.1 µM", "result": 0.757},
      {"measurement": "relative viability", "setting": "NCI-H1651; first compound 0.001 µM", "result": 0.572},
      {"measurement": "relative viability", "setting": "NCI-H1651; first compound 0.003162 µM", "result": 0.734},
      {"measurement": "relative viability", "setting": "NCI-H1651; first compound 0.01 µM", "result": 0.689},
      {"measurement": "relative viability", "setting": "NCI-H1651; first compound 0.03162 µM", "result": 0.535}
    ]}
  ]
}
